# Legend:
# NSCLC [1] = experiment: single-agent treatment of NSCLC patients; format: in vivo, humans; settings: Compound I
# [2] = oral bioavailability in humans; settings: human, in vivo, 45% coefficient of variation
# tumor [3] = experiment: preclinical anti-tumor activity; format: in vivo; settings: oral Compound I versus I.V. paclitaxel
# [4] = oral bioavailability in dog; format: in vivo
# [5] = oral bioavailability in rats; format: in vivo; settings: rat
# tumor [6] = experiment: Phase I data, Compound I single agent; format: in vivo, humans
# NSCLC [7] = settings: chemo-naive or pre-treated NSCLC; cited from earlier work
# [8] = tested on: variety of tumor types, including NSCLC; settings: cited from earlier work
bioavailability [2],oral bioavailability [4],oral bioavailability [5],Compound,activity in treatment of pre-treated NSCLC (NSCLC [1]),main toxicity (NSCLC [1]; pre-treated NSCLC),preclinical anti-tumor activity (tumor [3]),"anti-tumor activity (tumor [6]; continuous weekly schedule, doses of 120 mg/m^2 and higher)",tolerability (tumor [6]; doses of 120 and 200 mg/m^2),"dose limiting toxicities (tumor [6]; twice weekly schedule, doses of 60 mg/m^2 and higher, versus weekly schedule)",activity in treatment of NSCLC (NSCLC [7]),tolerability profile (NSCLC [7]),anti-tumor activity in pre-clinical models [8]
24%,good oral bioavailability,good oral bioavailability,"COC(=O)O[C@@]12CO[C@@H]1C[C@H](O)[C@@]1(C)C(=O)[C@H](OC(C)=O)C3=C(C)[C@@H](OC(=O)[C@H](O)[C@@H](NC(=O)OC(C)(C)C)C(C)(C)C)C[C@@](O)([C@@H](OC(=O)c4ccccc4)[C@H]21)C3(C)C [Compound I, 3′-tert-butyl-3′-N-tert-butyloxycarbonyl-4-deacetyl-3′-dephenyl-3′-N-debenzoyl-4-O-methoxycarbonyl-paclitaxel]",promising early signs of activity,"transient, manageable neuropathy",comparable to intravenous (I.V.) paclitaxel,shows anti-tumor activity,acceptable,may reduce dose limiting toxicities,,,
,,,Nc1nc2[nH]cc(CCc3ccc(C(=O)N[C@@H](CCC(=O)O)C(=O)O)cc3)c2c(=O)[nH]1 [Pemetrexed],,,,,,,single-agent activity,acceptable tolerability profile,has shown anti-tumor activity

# Source: patent US20080221135A1, “COMBINATION THERAPY” (Bristol-Myers Squibb Company, priority 2005, published 2008)
